Data: ChEMBL document CHEMBL2407038, “Cyclophilin inhibitors as antiviral agents” (Bioorg Med Chem Lett, 2013)
Square brackets hold non-standard residues; d marks the D form. Peptide text beside a SMILES is read from it. MeBmt = C/C=C/C[C@@H](C)[C@@H](O)[C@H](NC)C(=O)O; NEtVal = CCN[C@H](C(=O)O)C(C)C; NMeL = CN[C@@H](CC(C)C)C(=O)O; NMeV = CN[C@H](C(=O)O)C(C)C; dHiv = CC(C)[C@@H](O)C(=O)O; dNMeA = CN[C@H](C)C(=O)O; Abu = CC[C@H](N)C(=O)O

What was measured:
Test in all cases: microbe, parasite or virus in culture
[1] = system: Human immunodeficiency virus 1; details: Human immunodeficiency virus 1, 3B, MT4, 96 h
Description: Antiviral activity against HIV1 3B infected in human MT4 cells coinfected with HTLV1 assessed as reduction in virus-induced cytopathogenicity after 4 days by MTT assay

[2] = system: Human immunodeficiency virus 1; details: Human immunodeficiency virus 1, 3B, CEM-SS, 144 h
Description: Antiviral activity against HIV1 3B infected in human CEM-SS cells assessed as reduction in virus-induced cytopathogenicity after 6 days by MTS assay

[3] = system: Human immunodeficiency virus 1; details: Human immunodeficiency virus 1, LAI, CEM-4
Description: Antiviral activity against HIV1 LAI infected in human CEM4 cells assessed as inhibition of viral replication

Hepatitis C virus [4] = details: Huh-7
Description: Antiviral activity against Hepatitis C virus infected in human Huh7ET cells by luciferase reporter gene assay

Hepatitis C virus [5] = details: Huh-7; remark: listed apart in the source
Description: Antiviral activity against Hepatitis C virus infected in human HuH7 cells by luciferase reporter gene assay

Hepatitis C virus [6] = details: Huh-7, 72 h
Description: Antiviral activity against Hepatitis C virus infected in human Huh7ET cells after 72 hrs by luciferase reporter gene assay

Hepatitis C virus [7] = system: Hepatitis C virus
Description: Antiviral activity against Hepatitis C virus

Hepatitis C virus [8] = details: 16 h
Description: Antiviral activity against Hepatitis C virus after 16 hrs by cell-based assay

Hepatitis C virus [9] = details: genotype 2b
Description: Antiviral activity against Hepatitis C virus genotype 2b infected in human Huh-9-13 cells after overnight incubation by MTT assay

Hepatitis C virus [10] = details: Huh-5-2, 72 h
Description: Antiviral activity against Hepatitis C virus infected in human HuH5.2 cells after 72 hrs by luciferase reporter gene assay

[11] = system: Human immunodeficiency virus 1; details: Human immunodeficiency virus 1, 3B, MT4
Description: Antiviral activity against HIV1 3B infected in human MT4 cells assessed as reduction in virus-induced cytopathogenicity after 5 to 6 days by MTT assay

Structure (SMILES): C/C=C/C[C@@H](C)[C@@H](O)[C@H]1C(=O)N[C@@H](CC)C(=O)N(C)CC(=O)N(C)[C@@H](CC(C)(C)O)C(=O)N[C@@H](C(C)C)C(=O)N(C)[C@@H](CC(C)C)C(=O)N[C@@H](C)C(=O)N[C@H](C)C(=O)N(C)[C@@H](CC(C)C)C(=O)N(C)[C@@H](CC(C)C)C(=O)N(C)[C@@H](C(C)C)C(=O)N1C
- EC50 [1]: 279 nM

Structure (SMILES): C/C=C/C[C@@H](C)[C@@H](O)[C@H]1C(=O)N[C@@H](CC)C(=O)N(C)CC(=O)N(C)[C@@H](C(C)C)C(=O)N[C@@H](C(C)C)C(=O)N(C)[C@@H](CC(C)C)C(=O)N[C@@H](C)C(=O)N[C@H](C)C(=O)N(C)[C@@H](CC(C)C)C(=O)N(C)[C@@H](CC(C)C)C(=O)N(C)[C@@H](C(C)C)C(=O)N1C
- EC50 [1]: 54 nM

Structure (SMILES): C/C=C/C[C@@H](C)[C@@H](O)[C@H]1C(=O)N[C@@H](CC)C(=O)N(C)C(OC(C)=O)C(=O)N(C)[C@@H](CC(C)C)C(=O)N[C@@H](C(C)C)C(=O)N(C)[C@@H](CC(C)C)C(=O)N[C@@H](C)C(=O)N[C@H](C)C(=O)N(C)[C@@H](CC(C)C)C(=O)N(C)[C@@H](CC(C)C)C(=O)N(C)[C@@H](C(C)C)C(=O)N1C (stereo partly specified)
- IC50 [2]: 119 nM

Structure (SMILES): C/C=C/C[C@@H](C)[C@@H](OC(C)=O)[C@H]1C(=O)N[C@@H](CC)C(=O)N(C)C(OC(C)=O)C(=O)N(C)[C@@H](CC(C)C)C(=O)N[C@@H](C(C)C)C(=O)N(C)[C@@H](CC(C)C)C(=O)N[C@@H](C)C(=O)N[C@H](C)C(=O)N(C)[C@@H](CC(C)C)C(=O)N(C)[C@@H](CC(C)C)C(=O)N(C)[C@@H](C(C)C)C(=O)N1C (stereo partly specified)
- IC50 [2]: 115 nM

Structure (SMILES): CC[C@@H]1NC(=O)[C@H]([C@H](O)[C@H](C)C/C=C/CO)N(C)C(=O)[C@H](C(C)C)N(C)C(=O)[C@H](CC(C)C)N(C)C(=O)[C@H](CC(C)C)N(C)C(=O)[C@@H](C)NC(=O)[C@H](C)NC(=O)[C@H](CC(C)C)N(C)C(=O)[C@H](C(C)C)NC(=O)[C@H](CC(C)C)N(C)C(=O)CN(C)C1=O
- EC50 [1]: 460 nM

Structure (SMILES): C/C=C/C[C@@H](C)[C@@H](O)[C@H]1C(=O)N[C@@H](CC)C(=O)N(C)[C@H](SCCN(CC)CC)C(=O)N(C)[C@@H](CC(C)C)C(=O)N[C@@H](C(C)C)C(=O)N(C)[C@@H](CC(C)C)C(=O)N[C@@H](C)C(=O)N[C@H](C)C(=O)N(C)[C@@H](CC(C)C)C(=O)N(C)[C@@H](CC(C)C)C(=O)N(C)[C@@H](C(C)C)C(=O)N1C
- EC50 [3]: 2.5 nM

Structure (SMILES): C/C=C/C[C@@H](C)[C@@H](O)[C@H]1C(=O)N[C@@H](CC)C(=O)N(C)[C@@H](CSCCN2CCOCC2)C(=O)N(C)[C@@H](CC(C)(C)O)C(=O)N[C@@H](C(C)C)C(=O)N(C)[C@@H](CC(C)C)C(=O)N[C@@H](C)C(=O)N[C@H](C)C(=O)N(C)[C@@H](CC(C)C)C(=O)N(C)[C@@H](CC(C)C)C(=O)N(C)[C@@H](C(C)C)C(=O)N1C
- EC50 [2]: 94.9 nM

Structure (SMILES): C/C=C/C[C@@H](C)[C@@H](O)[C@H]1C(=O)N[C@@H](CC)C(=O)N(C)[C@H](OC)C(=O)N(C)[C@@H](CC(C)(C)O)C(=O)N[C@@H](C(C)C)C(=O)N(C)[C@@H](CC(C)C)C(=O)N[C@@H](C)C(=O)N[C@H](C)C(=O)N(C)[C@@H](CC(C)C)C(=O)N(C)[C@@H](CC(C)C)C(=O)N(C)[C@@H](C(C)C)C(=O)N1C
- EC50 [2]: 60 nM

Structure (SMILES): C/C=C/C[C@@H](C)[C@@H](O)[C@H]1C(=O)N[C@@H](CC)C(=O)N(C)CC(=O)N(C)[C@@H](CC(C)C)C(=O)N[C@@H](C(C)C)C(=O)N(C)[C@@H](CC(C)C)C(=O)N[C@@H](C)C(=O)N[C@H](C)C(=O)N(C)[C@@H](CC(C)(C)O)C(=O)N(C)[C@@H](CC(C)C)C(=O)N(C)[C@@H](C(C)C)C(=O)N1C
- EC50 [1]: 255 nM

Structure (SMILES): C/C=C/C[C@@H](C)[C@@H](O)[C@H]1C(=O)N[C@@H](CC)C(=O)N(C)[C@H](SCCCN2CCOCC2)C(=O)N(C)[C@@H](CC(C)(C)O)C(=O)N[C@@H](C(C)C)C(=O)N(C)[C@@H](CC(C)C)C(=O)N[C@@H](C)C(=O)N[C@H](C)C(=O)N(C)[C@@H](CC(C)C)C(=O)N(C)[C@@H](CC(C)C)C(=O)N(C)[C@@H](C(C)C)C(=O)N1C
- EC50 (Hepatitis C virus [4]): 40 nM

Structure (SMILES): C/C=C/C[C@@H](C)[C@@H](O)[C@H]1C(=O)N[C@@H](CC)C(=O)N(C)[C@@H](CSCCCN2CCOCC2)C(=O)N(C)[C@@H](CC(C)(C)O)C(=O)N[C@@H](C(C)C)C(=O)N(C)[C@@H](CC(C)C)C(=O)N[C@@H](C)C(=O)N[C@H](C)C(=O)N(C)[C@@H](CC(C)C)C(=O)N(C)[C@@H](CC(C)C)C(=O)N(C)[C@@H](C(C)C)C(=O)N1C
- EC50 (Hepatitis C virus [5]): 20 nM

Structure (SMILES): C/C=C/C[C@@H](C)[C@@H](O)[C@H]1C(=O)N[C@@H](CC)C(=O)N(C)CC(=O)N(C)[C@@H](CC(C)(C)OCc2ccccc2)C(=O)N[C@@H](C(C)C)C(=O)N(C)[C@@H](CC(C)C)C(=O)N[C@@H](C)C(=O)N[C@H](C)C(=O)N(C)[C@@H](CC(C)C)C(=O)N(C)[C@@H](CC(C)C)C(=O)N(C)[C@@H](C(C)C)C(=O)N1C
- EC50 (Hepatitis C virus [6]): 410 nM

Structure (SMILES): C/C=C/C[C@@H](C)[C@@H](O)[C@H]1C(=O)N[C@@H](CC)C(=O)N[C@H](C)C(=O)N(C)[C@@H](CC(C)C)C(=O)N(C/C=C(\C)CO)[C@@H](C(C)C)C(=O)N(C)[C@@H](CC(C)C)C(=O)N[C@@H](C)C(=O)N[C@H](C)C(=O)N(C)[C@@H](CC(C)C)C(=O)N(C)[C@@H](CC(C)C)C(=O)N(C)[C@@H](C(C)C)C(=O)N1C
- EC50 (Hepatitis C virus [7]): 50 nM

Structure (SMILES): C/C=C/C[C@@H](C)[C@@H](O)[C@H]1C(=O)N[C@@H]([C@@H](C)O)C(=O)N(C)CC(=O)N(C)[C@@H](CC(C)C)C(=O)N[C@@H](C(C)C)C(=O)N(C)[C@@H](CC(C)C)C(=O)N[C@@H](C)C(=O)N[C@H](C)C(=O)N(C)[C@@H](CC(C)CO)C(=O)N(C)[C@@H](CC(C)C)C(=O)N(C)[C@@H](C(C)C)C(=O)N1C (stereo partly specified)
- EC50 (Hepatitis C virus [8]): < 3000 nM

Structure (SMILES): C/C=C/C[C@@H](C)[C@@H](O)[C@H]1C(=O)N[C@@H](CC)C(=O)N(C)[C@H](C)C(=O)N(CC)[C@@H](C(C)C)C(=O)N[C@@H](CC(C)C)C(=O)N(C)[C@@H](CC(C)C)C(=O)N[C@@H](C)C(=O)O[C@H](C(C)C)C(=O)N(C)[C@@H](CC(C)C)C(=O)N[C@@H](CC(C)C)C(=O)N(C)[C@@H](C(C)C)C(=O)N1C (cyclo(A[dHiv][NMeL]L[NMeV][MeBmt][Abu][dNMeA][NEtVal]L[NMeL]))
- EC50 (Hepatitis C virus [9]): 37 nM

Structure (SMILES): C/C=C/C[C@@H](C)[C@@H](O)[C@H]1C(=O)N[C@@H](CC)C(=O)N(C)[C@H](C)C(=O)N(CC)[C@@H](C(C)C)C(=O)N[C@@H](C(C)C)C(=O)N(C)[C@@H](CC(C)C)C(=O)N[C@@H](C)C(=O)N[C@H](C)C(=O)N(C)[C@@H](CC(C)C)C(=O)N(C)[C@@H](CC(C)C)C(=O)N(C)[C@@H](C(C)C)C(=O)N1C [ALISPORIVIR]
- EC50 (Hepatitis C virus [10]): 25 nM
- EC50 [11]: 63 nM

Structure (SMILES): C/C=C/C[C@@H](C)[C@@H](O)[C@H]1C(=O)N[C@@H](CC)C(=O)N(C)CC(=O)N(C)[C@@H](CC(C)C)C(=O)N[C@@H](C(C)C)C(=O)N(C)[C@@H](CC(C)C)C(=O)N[C@@H](C)C(=O)N[C@H](C)C(=O)N(C)[C@@H](CC(C)C)C(=O)N(C)[C@@H](CC(C)C)C(=O)N(C)[C@@H](C(C)C)C(=O)N1C [CYCLOSPORINE]
- EC50 (Hepatitis C virus [7]): 230 nM
- EC50 [1]: 450 nM

Structure (SMILES): C/C=C/C[C@@H](C)[C@@H](O)[C@H]1C(=O)N[C@@H](CC)C(=O)N(C)CC(=O)N(C)[C@@H]([C@@H](C)CC)C(=O)N[C@@H](C(C)C)C(=O)N(C)[C@@H](CC(C)C)C(=O)N[C@@H](C)C(=O)N[C@H](C)C(=O)N(C)[C@@H](CC(C)C)C(=O)N(C)[C@@H](CC(C)C)C(=O)N(C)[C@@H](C(C)C)C(=O)N1C [NIM811]
- EC50 [1]: 47 nM

Structure (SMILES): C/C=C/C[C@@H](C)[C@@H](O)[C@H]1C(=O)N[C@@H](CC)C(=O)N(C)[C@H](SCCN(C)C)C(=O)N(C)[C@@H](CC(C)(C)O)C(=O)N[C@@H](C(C)C)C(=O)N(C)[C@@H](CC(C)C)C(=O)N[C@@H](C)C(=O)N[C@H](C)C(=O)N(C)[C@@H](CC(C)C)C(=O)N(C)[C@@H](CC(C)C)C(=O)N(C)[C@@H](C(C)C)C(=O)N1C [SCY 635]
- EC50 [3]: 45 nM
